Measured values taken from PubChem BioAssay AID1259407 (Chemical Carcinogenesis Research Information System (CCRIS), 2018).
Calls of active or inactive are those of the source. How the calls were made is not given here.

Test system: CCRIS mutagenicity, Ames/micronucleus/aberration tests
Assay: CCRIS mutagenicity studies
[1] = Test System: AMES SALMONELLA TYPHIMURIUM, Strain/Indicator: TA98, Metabolic Activation: NONE, Method: STANDARD PLATE
[2] = Test System: AMES SALMONELLA TYPHIMURIUM, Strain/Indicator: TA100, Metabolic Activation: NONE, Method: PREINCUBATION
[3] = Test System: AMES SALMONELLA TYPHIMURIUM, Strain/Indicator: TA100, Metabolic Activation: NONE, Method: STANDARD PLATE
[4] = Test System: AMES SALMONELLA TYPHIMURIUM, Strain/Indicator: TA100, Metabolic Activation: RAT, LIVER, S-9, AROCLOR 1254 (10%), Method: PREINCUBATION
[5] = Test System: AMES SALMONELLA TYPHIMURIUM, Strain/Indicator: TA100, Metabolic Activation: RAT, LIVER, S-9, AROCLOR 1254, Method: STANDARD PLATE
[6] = Test System: AMES SALMONELLA TYPHIMURIUM, Strain/Indicator: TA1535, Metabolic Activation: NONE, Method: PREINCUBATION
[7] = Test System: AMES SALMONELLA TYPHIMURIUM, Strain/Indicator: TA1535, Metabolic Activation: RAT, LIVER, S-9, AROCLOR 1254 (10%), Method: PREINCUBATION
[8] = Test System: AMES SALMONELLA TYPHIMURIUM, Strain/Indicator: TA104, Metabolic Activation: NONE, Method: STANDARD PLATE
[9] = Test System: AMES SALMONELLA TYPHIMURIUM, Strain/Indicator: TA100, Metabolic Activation: RAT, LIVER, S-9, PCB, Method: PREINCUBATION
[10] = Test System: AMES SALMONELLA TYPHIMURIUM, Strain/Indicator: TA98, Metabolic Activation: NONE, Method: PREINCUBATION

C=CC1CO1 (configuration not stated)
mutagenic call (End Point: IN VIVO CHROMOSOMAL ABERRATIONS, Test System: BONE MARROW CELLS, Species: MOUSE, Strain/Sex: C57B1/6/MALE, Route: IP INJECTION (ONCE)): active; positive
mutagenic call (End Point: IN VIVO MICRONUCLEUS, Test System: BONE MARROW POLYCHROMATIC ERYTHROCYTES, Species: MOUSE, Strain/Sex: C57/BL/MALE, Route: INTRAPERITONEAL INJECTION): active; positive
mutagenic call (End Point: IN VIVO MICRONUCLEUS, Test System: PERIPHERAL BLOOD RETICULOCYTES, Species: MOUSE, Strain/Sex: BALB/C/MALE, Route: IP INJECTION, ONCE): active; positive
mutagenic call (End Point: IN VIVO MICRONUCLEUS, Test System: SPERMATID, Species: RAT, Strain/Sex: SPRAGUE-DAWLEY/MALE, Route: IP INJECTION): active; positive
mutagenic call (End Point: IN VIVO MICRONUCLEUS, Test System: SPERMATIDS, Species: MOUSE, Strain/Sex: (102XC3H)F1/MALE, Route: IP INJECTION): active; positive only at 14 d and higher dose levels
mutagenic call (End Point: IN VIVO MICRONUCLEUS, Test System: SPERMATIDS, Species: MOUSE, Strain/Sex: BALB/C/MALE, Route: IP INJECTION, ONCE): active; positive (positive in golgi-phase and at highest dose after 14 or 16 d)
mutagenic call (End Point: IN VIVO MICRONUCLEUS, Test System: SPERMATIDS, Species: RAT, Strain/Sex: LEWIS/MALE, Route: IP INJECTION): active; positive
mutagenic call (End Point: IN VIVO MICRONUCLEUS, Test System: SPLENOCYTES, Species: MOUSE, Strain/Sex: (102XC3H)F1/MALE, Route: IP INJECTION): active; positive
mutagenic call (End Point: IN VIVO MICRONUCLEUS, Test System: SPLENOCYTES, Species: MOUSE, Strain/Sex: BALB/C, Route: IP): active; positive only for 48.8 mg dose at either 2 or 16 d after treatment
mutagenic call (End Point: IN VIVO MICRONUCLEUS, Test System: SPLENOCYTES, Species: RAT, Strain/Sex: LEWIS/MALE, Route: IP INJECTION): active; positive
mutagenic call [1]: inactive; negative
mutagenic call (Test System: AMES SALMONELLA TYPHIMURIUM, Strain/Indicator: TA100, Metabolic Activation: HAMSTER, LIVER, S-9, AROCLOR 1254 (10%), Method: PREINCUBATION): active; positive
mutagenic call [2]: active; positive
mutagenic call [3]: active; positive
mutagenic call [4]: active; positive
mutagenic call [5]: active; positive
mutagenic call (Test System: AMES SALMONELLA TYPHIMURIUM, Strain/Indicator: TA1535, Metabolic Activation: HAMSTER, LIVER, S-9, AROCLOR 1254 (10%), Method: PREINCUBATION): active; positive
mutagenic call [6]: active; positive
mutagenic call (Test System: AMES SALMONELLA TYPHIMURIUM, Strain/Indicator: TA1535, Metabolic Activation: NONE, Method: STANDARD PLATE): active; positive
mutagenic call [7]: active; positive
mutagenic call (Test System: UDS MOUSE SPERM CELL, Strain/Indicator: THY INCORP, Metabolic Activation: IN VIVO, Method: LIQUID SCINTILLATION COUNTING): inactive; negative
mutagenic call (Test System: UDS RODENT HEPATOCYTES, Strain/Indicator: THY INCORP (NON-S-PHASE), Metabolic Activation: NONE, Method: AUTORADIOGRAPHY): inactive; negative

O=Nc1c2ccccc2c2ccc3cccc4ccc1c2c43
mutagenic call (Test System: AMES SALMONELLA TYPHIMURIUM, Strain/Indicator: TA97, Metabolic Activation: NONE, Method: STANDARD PLATE): active; positive
mutagenic call (Test System: AMES SALMONELLA TYPHIMURIUM, Strain/Indicator: TA98 (1,8-DNP6), Metabolic Activation: NONE, Method: STANDARD PLATE): active; positive
mutagenic call (Test System: AMES SALMONELLA TYPHIMURIUM, Strain/Indicator: TA98 (NR), Metabolic Activation: NONE, Method: STANDARD PLATE): active; positive
mutagenic call (Test System: AMES SALMONELLA TYPHIMURIUM, Strain/Indicator: TA98, Metabolic Activation: NONE', Method: STANDARD PLATE): active; positive
mutagenic call [1]: active; positive
mutagenic call [3]: active; positive
mutagenic call [8]: active; positive
mutagenic call (Test System: CHINESE HAMSTER OVARY, Strain/Indicator: CHO-K1-BH4 (HGPRT), Metabolic Activation: NONE): active; positive

COC(=O)c1c2c(c3ccccc3c1O)OC(C)(C)C=C2
mutagenic call [2]: active; positive
mutagenic call [9]: active; positive

CC[C@@]1(O)C[C@H](O[C@H]2C[C@H](N(C)C)[C@H](O)[C@H](C)O2)c2c(cc3c(c2O)C(=O)c2c(O)ccc(O)c2C3=O)[C@H]1C(=O)OC
mutagenic call (Test System: AMES SALMONELLA TYPHIMURIUM, Strain/Indicator: TA102, Metabolic Activation: NONE, Method: STANDARD PLATE): active; positive
mutagenic call [8]: active; positive
mutagenic call (Test System: AMES SALMONELLA TYPHIMURIUM, Strain/Indicator: TA1537, Metabolic Activation: NONE): active; positive
mutagenic call (Test System: AMES SALMONELLA TYPHIMURIUM, Strain/Indicator: TA1537, Metabolic Activation: RAT, LIVER, S-9, AROCLOR 1254): active; positive

CNc1ccc2ncc(C)nc2c1C
mutagenic call [10]: inactive; negative
mutagenic call (Test System: AMES SALMONELLA TYPHIMURIUM, Strain/Indicator: TA98, Metabolic Activation: RAT, LIVER, S-9, PCB, Method: PREINCUBATION): active; positive
mutagenic call [2]: inactive; negative
mutagenic call [9]: active; positive

CCC(C)C(C)CO (configuration not stated)
mutagenic call (Test System: AMES SALMONELLA TYPHIMURIUM, Strain/Indicator: TA97, Metabolic Activation: HAMSTER, LIVER, S-9, AROCLOR 1254 (10 OR 30%), Method: PREINCUBATION): inactive; negative
mutagenic call (Test System: AMES SALMONELLA TYPHIMURIUM, Strain/Indicator: TA97, Metabolic Activation: NONE, Method: PREINCUBATION): inactive; negative
mutagenic call (Test System: AMES SALMONELLA TYPHIMURIUM, Strain/Indicator: TA97, Metabolic Activation: RAT, LIVER, S-9, AROCLOR 1254 (10%), Method: PREINCUBATION): inactive; negative
mutagenic call (Test System: AMES SALMONELLA TYPHIMURIUM, Strain/Indicator: TA97, Metabolic Activation: RAT, LIVER, S-9, AROCLOR 1254 (30%), Method: PREINCUBATION): inactive; negative
mutagenic call (Test System: AMES SALMONELLA TYPHIMURIUM, Strain/Indicator: TA98, Metabolic Activation: HAMSTER, LIVER, S-9, AROCLOR 1254 (10 OR 30%), Method: PREINCUBATION): inactive; negative
mutagenic call [10]: inactive; negative
mutagenic call (Test System: AMES SALMONELLA TYPHIMURIUM, Strain/Indicator: TA98, Metabolic Activation: RAT, LIVER, S-9, AROCLOR 1254 (10%), Method: PREINCUBATION): inactive; negative
mutagenic call (Test System: AMES SALMONELLA TYPHIMURIUM, Strain/Indicator: TA98, Metabolic Activation: RAT, LIVER, S-9, AROCLOR 1254 (30%), Method: PREINCUBATION): inactive; negative
mutagenic call (Test System: AMES SALMONELLA TYPHIMURIUM, Strain/Indicator: TA100, Metabolic Activation: HAMSTER, LIVER, S-9, AROCLOR 1254 (10 OR 30%), Method: PREINCUBATION): inactive; negative
mutagenic call [2]: inactive; negative
mutagenic call [4]: inactive; negative
mutagenic call (Test System: AMES SALMONELLA TYPHIMURIUM, Strain/Indicator: TA100, Metabolic Activation: RAT, LIVER, S-9, AROCLOR 1254 (30%), Method: PREINCUBATION): inactive; negative
mutagenic call (Test System: AMES SALMONELLA TYPHIMURIUM, Strain/Indicator: TA1535, Metabolic Activation: HAMSTER, LIVER, S-9, AROCLOR 1254 (10 OR 30%), Method: PREINCUBATION): inactive; negative
mutagenic call [6]: inactive; negative
mutagenic call [7]: inactive; negative
mutagenic call (Test System: AMES SALMONELLA TYPHIMURIUM, Strain/Indicator: TA1535, Metabolic Activation: RAT, LIVER, S-9, AROCLOR 1254 (30%), Method: PREINCUBATION): inactive; negative

O=[N+]([O-])c1c2ccccc2cc2c3c(ccc12)[C@@H](O)[C@H](O)C=C3
mutagenic call [1]: active; positive
mutagenic call [3]: inactive; negative

CC(C)(O)CCc1ccc(O)c2c(=O)c3c(O)c4c(cc3oc12)O[C@H]1OC=C[C@@]41O
mutagenic call [1]: inactive; negative
mutagenic call (Test System: AMES SALMONELLA TYPHIMURIUM, Strain/Indicator: TA98, Metabolic Activation: RAT, LIVER, S-9, AROCLOR 1254, Method: STANDARD PLATE): active; positive
mutagenic call [3]: inactive; negative
mutagenic call [5]: active; positive
